# Reference: PMC5571522, “Cryptotanshinone inhibition of mammalian target of rapamycin pathway is dependent on oestrogen receptor alpha in breast cancer” (Journal of Cellular and Molecular Medicine, 2017)
# pEC50: −log10 of the molar value.
# Biological target: T1, oestrogen receptor alpha (ERα) (Homo sapiens, UniProt P03372)
# T1 construct: gene ESR1
# Assay: HitHunter Estrogen Assay Kit competitive binding (enzyme fragment complementation); supported by ERE-luciferase inhibition in MCF-7 cells
# T1 sequence (P03372 whole entry): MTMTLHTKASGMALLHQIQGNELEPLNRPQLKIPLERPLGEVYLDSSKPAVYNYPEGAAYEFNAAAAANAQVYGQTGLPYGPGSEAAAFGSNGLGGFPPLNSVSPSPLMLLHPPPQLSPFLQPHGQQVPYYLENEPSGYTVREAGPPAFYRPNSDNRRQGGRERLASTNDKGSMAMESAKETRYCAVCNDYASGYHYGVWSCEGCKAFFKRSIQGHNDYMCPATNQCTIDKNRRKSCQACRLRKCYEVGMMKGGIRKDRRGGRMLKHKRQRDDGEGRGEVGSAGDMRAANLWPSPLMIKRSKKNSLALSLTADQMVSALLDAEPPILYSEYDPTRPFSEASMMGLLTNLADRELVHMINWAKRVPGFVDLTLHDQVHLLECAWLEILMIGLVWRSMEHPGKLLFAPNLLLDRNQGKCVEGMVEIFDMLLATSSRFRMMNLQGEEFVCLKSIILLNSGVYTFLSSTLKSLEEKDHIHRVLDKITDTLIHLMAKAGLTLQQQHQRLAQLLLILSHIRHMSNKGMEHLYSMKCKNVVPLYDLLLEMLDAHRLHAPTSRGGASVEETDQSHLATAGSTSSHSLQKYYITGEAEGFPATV
smiles,measurement,value
"C[C@H]1COC2=C1C(=O)C(=O)c1c2ccc2c1CCCC2(C)C [CPT, Cryptotanshinone]",pEC50,~8.01
